Reference: PubChem BioAssay AID330 (DTP/NCI, 2004)
Several values for one entry are separate records, joined by “and”; a condition that tells them apart may be missing. Identical values can stand only once. Inconclusive results and toxic doses are left out. The calls were made as follows: active = survival T/C of 150% or more; inactive = T/C below 125% in these data.

Tested on: P388 leukemia ip, CD2F1 mice, survival T/C
Assay: NCI In Vivo Anticancer Drug Screen. Data for tumor model P388 Leukemia (intraperitoneal) in CD2F1 (CDF1) mice
Conditions: endpoint: median survival time, higher = longer survival
Summary of the method: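 Mice carrying the transplanted tumor received test compound or vehicle. Survival was recorded in each group, and the value is the treated-group measurement divided by that of the vehicle-treated control group.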

[1] = dose: 50.0 mg/kg/injection, schedule: Q01DX005 (ip), vehicle: Klucel (hydroxypropylcellulose) (HPC)
[2] = dose: 100.0 mg/kg/injection, schedule: Q01DX005 (ip), vehicle: Klucel (hydroxypropylcellulose) (HPC)
[3] = dose: 200.0 mg/kg/injection, schedule: Q01DX005 (ip), vehicle: Klucel (hydroxypropylcellulose) (HPC)
[4] = dose: 50.0 mg/kg/injection, schedule: Q01DX009 (ip), vehicle: saline with Tween-80
[5] = dose: 100.0 mg/kg/injection, schedule: Q01DX009 (ip), vehicle: saline with Tween-80
[6] = dose: 200.0 mg/kg/injection, schedule: Q01DX009 (ip), vehicle: saline with Tween-80
[7] = dose: 50.0 mg/kg/injection, schedule: Q01DX005 (ip), vehicle: saline with Tween-80
[8] = dose: 100.0 mg/kg/injection, schedule: Q01DX005 (ip), vehicle: saline with Tween-80

Measured: T/C

COc1cccc2c1C(=O)c1c(O)c3c(c(O)c1C2=O)C[C@@](O)(C(C)O)C[C@@H]3OC1CC(N(C)C)C(O)C(C)O1 (stereo partly specified)
active: dose: 0.78 mg/kg/injection, schedule: Q01DX009 (ip), vehicle: water 152 % of control | dose: 1.56 mg/kg/injection, schedule: Q01DX009 (ip), vehicle: water 159 % of control and 161 % of control | dose: 3.13 mg/kg/injection, schedule: Q01DX009 (ip), vehicle: water 165 % of control and 172 % of control | dose: 6.25 mg/kg/injection, schedule: Q01DX009 (ip), vehicle: water 198 % of control and 209 % of control
inactive: dose: 2.35 mg/kg/injection, schedule: Q04DX003 (ip), vehicle: water 107 % of control | dose: 9.4 mg/kg/injection, schedule: Q04DX003 (ip), vehicle: water 111 % of control | dose: 75.0 mg/kg/injection, schedule: Q04DX003 (ip), vehicle: water 108 % of control

CCC(=O)N(C)C(C)C(=O)OC1CC(=O)N(C)c2cc(cc(OC)c2Cl)CC(C)CCCC(OC)C2(O)CC(OC(=O)N2)C(C)C2OC12C (stereo unspecified)
inactive: dose: 1.56 micrograms/kg/injection, schedule: Q01DX009 (ip), vehicle: saline + alcohol 106 % of control | dose: 3.12 micrograms/kg/injection, schedule: Q01DX009 (ip), vehicle: saline + alcohol 105 % of control | dose: 6.25 micrograms/kg/injection, schedule: Q01DX009 (ip), vehicle: saline + alcohol 110 % of control | dose: 12.5 micrograms/kg/injection, schedule: Q01DX009 (ip), vehicle: saline + alcohol 108 % of control | dose: 50.0 micrograms/kg/injection, schedule: Q01DX009 (ip), vehicle: saline + alcohol 105 % of control | dose: 100.0 micrograms/kg/injection, schedule: Q01DX009 (ip), vehicle: saline + alcohol 109 % of control | dose: 200.0 micrograms/kg/injection, schedule: Q01DX009 (ip), vehicle: saline + alcohol 102 % of control | dose: 400.0 micrograms/kg/injection, schedule: Q01DX009 (ip), vehicle: saline + alcohol 114 % of control

COc1ccc(N(C)C(=O)/C=C/N2CCCCC2)cc1
inactive: dose: 12.5 mg/kg/injection, schedule: Q01DX005 (ip), vehicle: Klucel (hydroxypropylcellulose) (HPC) 107 % of control | dose: 25.0 mg/kg/injection, schedule: Q01DX005 (ip), vehicle: Klucel (hydroxypropylcellulose) (HPC) 98 % of control | [1] 114 % of control and 98 % of control | [2] 124 % of control and 96 % of control | [3] 109 % of control

C=C1C(=O)OC2C/C(C)=C/CC/C(C)=C/CCC3(C)OC3CC12 (stereo unspecified)
inactive: dose: 4.0 mg/kg/injection, schedule: Q01DX009 (ip), vehicle: Klucel (hydroxypropylcellulose) (HPC) 104 % of control | dose: 8.0 mg/kg/injection, schedule: Q01DX009 (ip), vehicle: Klucel (hydroxypropylcellulose) (HPC) 104 % of control | dose: 16.0 mg/kg/injection, schedule: Q01DX009 (ip), vehicle: Klucel (hydroxypropylcellulose) (HPC) 108 % of control | dose: 32.0 mg/kg/injection, schedule: Q01DX009 (ip), vehicle: Klucel (hydroxypropylcellulose) (HPC) 105 % of control

C=C[C@H](c1ccccc1O)c1cc(OC)c(OC)cc1OC
inactive: dose: 31.75 mg/kg/injection, schedule: Q01DX005 (ip), vehicle: Klucel (hydroxypropylcellulose) (HPC) 104 % of control | dose: 63.5 mg/kg/injection, schedule: Q01DX005 (ip), vehicle: Klucel (hydroxypropylcellulose) (HPC) 103 % of control | dose: 127.0 mg/kg/injection, schedule: Q01DX005 (ip), vehicle: Klucel (hydroxypropylcellulose) (HPC) 106 % of control | dose: 254.0 mg/kg/injection, schedule: Q01DX005 (ip), vehicle: Klucel (hydroxypropylcellulose) (HPC) 102 % of control

CC(=N\NC(N)=S)/C(C)=N/Nc1ccccc1
inactive: dose: 100.0 mg/kg/injection, schedule: Q04DX003 (ip), vehicle: Klucel (hydroxypropylcellulose) (HPC) 106 % of control | dose: 200.0 mg/kg/injection, schedule: Q04DX003 (ip), vehicle: Klucel (hydroxypropylcellulose) (HPC) 100 % of control | dose: 400.0 mg/kg/injection, schedule: Q04DX003 (ip), vehicle: Klucel (hydroxypropylcellulose) (HPC) 100 % of control

C=CCOC(=O)OCCCO
inactive: dose: 60.0 mg/kg/injection, schedule: Q01DX005 (ip), vehicle: saline 105 % of control | dose: 120.0 mg/kg/injection, schedule: Q01DX005 (ip), vehicle: saline 99 % of control

COc1cc2c(c(OC)c1OC)-c1cc3c(cc1C(OC1OC4COC(C)OC4C(O)C1O)C1COC(=O)C1C2)OCO3 (stereo unspecified)
inactive: dose: 17.5 mg/kg/injection, schedule: Q01DX005 (ip), vehicle: Klucel (hydroxypropylcellulose) (HPC) 103 % of control | dose: 35.0 mg/kg/injection, schedule: Q01DX005 (ip), vehicle: Klucel (hydroxypropylcellulose) (HPC) 101 % of control | dose: 70.0 mg/kg/injection, schedule: Q01DX005 (ip), vehicle: Klucel (hydroxypropylcellulose) (HPC) 119 % of control | dose: 140.0 mg/kg/injection, schedule: Q01DX005 (ip), vehicle: Klucel (hydroxypropylcellulose) (HPC) 119 % of control

O=C(O)C(Cc1ccc(O)cc1)NC(=O)C(F)(F)F (stereo unspecified)
inactive: [4] 98 % of control and 100 % of control | [5] 93 % of control | [6] 90 % of control

CC(=O)N1OC2(C)c3ccccc3C1(C)c1ccccc12
inactive: [4] 100 % of control | [5] 94 % of control | [6] 92 % of control

CCOc1cccc2c1NC(C)=C(C(=O)c1ccccc1)S2
inactive: dose: 60.0 mg/kg/injection, schedule: Q01DX005 (ip), vehicle: saline with Tween-80 100 % of control | dose: 120.0 mg/kg/injection, schedule: Q01DX005 (ip), vehicle: saline with Tween-80 95 % of control | dose: 240.0 mg/kg/injection, schedule: Q01DX005 (ip), vehicle: saline with Tween-80 91 % of control

CC1C=CCC2C(=O)c3cccc([N+](=O)[O-])c3C(=O)C12 (stereo unspecified)
inactive: [1] 100 % of control | [2] 96 % of control | [3] 92 % of control

COC(=O)c1cccc2c1N(C)c1c(cccc1C(=O)OC)CC2
inactive: dose: 50.0 mg/kg/injection, schedule: Q01DX009 (ip), vehicle: distilled water + Tween-80 + alcohol 93 % of control | dose: 100.0 mg/kg/injection, schedule: Q01DX009 (ip), vehicle: distilled water + Tween-80 + alcohol 94 % of control | dose: 200.0 mg/kg/injection, schedule: Q01DX009 (ip), vehicle: distilled water + Tween-80 + alcohol 99 % of control

CC(Cl)C(=O)NN=C(c1ccccc1)c1ccccc1 (stereo unspecified)
inactive: dose: 42.0 mg/kg/injection, schedule: Q01DX009 (ip), vehicle: saline 94 % of control | dose: 84.0 mg/kg/injection, schedule: Q01DX009 (ip), vehicle: saline 90 % of control | dose: 168.0 mg/kg/injection, schedule: Q01DX009 (ip), vehicle: saline 105 % of control

CCCCCCn1c(Cl)c(C(=O)O)c2ccccc21
inactive: dose: 100.0 mg/kg/injection, schedule: Q04DX002 (ip), vehicle: saline with Tween-80 99 % of control | dose: 200.0 mg/kg/injection, schedule: Q04DX002 (ip), vehicle: saline with Tween-80 97 % of control | dose: 400.0 mg/kg/injection, schedule: Q04DX002 (ip), vehicle: saline with Tween-80 95 % of control

O=C(Nc1c(Cl)cccc1Cl)OCc1ccco1
inactive: dose: 60.0 mg/kg/injection, schedule: Q01DX005 (ip), vehicle: Klucel (hydroxypropylcellulose) (HPC) 105 % of control | dose: 120.0 mg/kg/injection, schedule: Q01DX005 (ip), vehicle: Klucel (hydroxypropylcellulose) (HPC) 102 % of control | dose: 240.0 mg/kg/injection, schedule: Q01DX005 (ip), vehicle: Klucel (hydroxypropylcellulose) (HPC) 100 % of control

O=C(CCCN1CCC2(CC1)C(=O)NCN2c1ccc(F)cc1)c1ccc(F)cc1
inactive: [7] 103 % of control | [8] 95 % of control | dose: 200.0 mg/kg/injection, schedule: Q01DX005 (ip), vehicle: saline with Tween-80 94 % of control

Cc1ccc(-c2cnc3[nH]c(=O)[nH]c(=O)c3n2)cc1
inactive: dose: 100.0 mg/kg/injection, schedule: Q04DX002 (ip), vehicle: saline 97 % of control | dose: 200.0 mg/kg/injection, schedule: Q04DX002 (ip), vehicle: saline 106 % of control | dose: 400.0 mg/kg/injection, schedule: Q04DX002 (ip), vehicle: saline 91 % of control

COC1OC(CO)C2OC(C)(C)OC12 (stereo unspecified)
inactive: dose: 50.0 mg/kg/injection, schedule: Q01DX005 (ip), vehicle: suspension in saline 101 % of control | dose: 100.0 mg/kg/injection, schedule: Q01DX005 (ip), vehicle: suspension in saline 106 % of control | dose: 200.0 mg/kg/injection, schedule: Q01DX005 (ip), vehicle: suspension in saline 101 % of control

CCc1nc2c(cnn2C)c(=O)n1-c1ccccc1Cl
inactive: [1] 100 % of control | [2] 100 % of control | [3] 102 % of control

CN1[C@H]2CC[C@@H]1[C@@H](O)CC2
inactive: dose: 25.0 mg/kg/injection, schedule: Q01DX005 (ip), vehicle: saline with Tween-80 97 % of control | [7] 97 % of control | [8] 91 % of control
